Where two headings read alike, the source gives them in different places.
Test: Pharmacokinetics in plasma and eye tissues of male SD rats after single administration of eye drop
Assay type: in vivo
Conditions: for half-life / AUC(0-t) / Cmax / Tmax / AUC(0-inf) / MRT inf / Kp / MRT last: rat, topical or ocular; for AUC(0-inf) / MRT inf: extrapolated; for MRT inf: read-out: MRT0-inf; for Kp: read-out: AUC ratio (tissue AUC0-last/plasma AUC0-last); for MRT last: read-out: MRT0-last
Description: Test purpose: to study pharmacokinetics of the compound in eye tissues of male SD rats after single administration of eye drop
Test material: SD rats (male, 7 to 10 weeks of age, WTLH/SLAC)
Test operation: In this test, 18 male SD rats were provided by Beijing Vital River Laboratory Animal Technology Co., Ltd., and were randomly divided into 6 groups (3 rats/group), and each group of animals were given […] (5 mg/mL for both eyes, 30 μL/eye) of OT202 eye drops during single administration. All animals were not fasted before administration.

[1] = SD (Sprague-Dawley), male SD rats, single eye drop 5 mg/mL, 30 μL/eye, both eyes, Aqueous humor of anterior chamber
[2] = SD (Sprague-Dawley), male SD rats, single eye drop 5 mg/mL, 30 μL/eye, both eyes, Bulbar conjunctiva
[3] = SD (Sprague-Dawley), male SD rats, single eye drop 5 mg/mL, 30 μL/eye, both eyes, Cornea
[4] = SD (Sprague-Dawley), male SD rats, single eye drop 5 mg/mL, 30 μL/eye, both eyes, Plasma
[5] = SD (Sprague-Dawley), male SD rats, single eye drop 5 mg/mL, 30 μL/eye, both eyes, Upper and lower eyelids
[6] = male SD rats, single eye drop 5 mg/mL, 30 μL/eye, both eyes, Aqueous humor of anterior chamber
[7] = male SD rats, single eye drop 5 mg/mL, 30 μL/eye, both eyes, Bulbar conjunctiva
[8] = male SD rats, single eye drop 5 mg/mL, 30 μL/eye, both eyes, Cornea
[9] = male SD rats, single eye drop 5 mg/mL, 30 μL/eye, both eyes, Plasma
[10] = male SD rats, single eye drop 5 mg/mL, 30 μL/eye, both eyes, Upper and lower eyelids

c1cn2c(n1)c(Nc1ccc(N3CCOCC3)cc1)nc1ccc(-c3cn[nH]c3)cc12
half-life (SD (Sprague-Dawley), both eyes, male SD rats, single eye drop 5 mg/mL, 30 μL/eye, Aqueous humor of anterior chamber, sampling range 6-24 h): 12.3 h | half-life (SD (Sprague-Dawley), both eyes, male SD rats, single eye drop 5 mg/mL, 30 μL/eye, Bulbar conjunctiva, sampling range 1-24 h, linear regression coefficient of elimination phase less than 0.9): 5.12 h | half-life (SD (Sprague-Dawley), both eyes, male SD rats, single eye drop 5 mg/mL, 30 μL/eye, Cornea, sampling range 1-24 h): 4.84 h | half-life (SD (Sprague-Dawley), both eyes, male SD rats, single eye drop 5 mg/mL, 30 μL/eye, Plasma, sampling range 1-6 h, linear regression coefficient of elimination phase less than 0.9): 4.8 h | half-life (SD (Sprague-Dawley), both eyes, male SD rats, single eye drop 5 mg/mL, 30 μL/eye, Upper and lower eyelids, sampling range 1-24 h): 9.45 h | AUC(0-t) [1]: 0.657 µM·h | Cmax [1]: 560 nM | Tmax [1]: 0.5 h | AUC(0-inf) [1]: 0.711 µM·h | AUC(0-t) [2]: 15.5 µM·h | Cmax [2]: 4510 nM | Tmax [2]: 0.5 h | AUC(0-inf) [2]: 16.4 µM·h | AUC(0-t) [3]: 2.53 µM·h | Cmax [3]: 1590 nM | Tmax [3]: 0.5 h | AUC(0-t) [4]: 0.00532 µM·h | Cmax [4]: 1.23 nM | Tmax [4]: 1 h | AUC(0-inf) [4]: 0.00956 µM·h | AUC(0-t) [5]: 65.5 µM·h | Cmax [5]: 10400 nM | Tmax [5]: 0.5 h | pharmacokinetic features, including eye-to-blood ratio, tissue exposure (conclusion in words): good pharmacokinetic features | AUC0-inf/AUC0-last (%) [6]: 108% | Tlast [6]: 24.0 h | AUC0-inf/AUC0-last (%) [7]: 106% | Tlast [7]: 24.0 h | AUC0-inf/AUC0-last (%) [8]: 102% | Tlast [8]: 24.0 h | AUC0-inf/AUC0-last (%) [9]: 180% | Tlast [9]: 6.00 h | AUC0-inf/AUC0-last (%) [10]: 122% | AUC ratio (tissue AUC0-last/plasma AUC0-last) [10]: 12300 | Tlast [10]: 24.0 h | MRT inf [6]: 6.27 h | Kp [6]: 123 | MRT last [6]: 3.35 h | MRT inf [7]: 6.73 h | Kp [7]: 2910 | MRT last [7]: 5.28 h | AUC(0-inf) [8]: 2.59 µM·h | MRT inf [8]: 5.74 h | Kp [8]: 476 | MRT last [8]: 5.05 h | MRT inf [9]: 7.39 h | MRT last [9]: 2.98 h | AUC(0-inf) [10]: 80 µM·h | MRT inf [10]: 13.7 h | MRT last [10]: 8.4 h

From patent publication US20240132503A1, “SALT FORM AND CRYSTAL FORM OF PYRAZOLE SUBSTITUTED IMIDAZO[1,2- A]QUINOXALINE DERIVATIVE” (OCUMENSION THERAPEUTICS (SUZHOU) CO., LTD, priority 2021, published 2024)
